Test results taken from the NIST ThermoML archive (doi:10.1021/acs.jced.8b00387).

Assay: xn = mol fraction of the nth substance listed
Settings: for viscosity / mass density / speed of sound: 102 kPa, Liquid; for viscosity: Concentric cylinders viscometry; for mass density: Vibrating tube method; for speed of sound: Frequency=3 MHz, Single path-length method; for surface tension liquid-gas: 294 K, Pendant drop shape

CC(CC(C)(C)C)CC(C)(C)C [2,2,4,6,6-pentamethylheptane] + CCCCCCc1ccccc1
Settings | mass density, 253.15 K [kg/m3] | mass density, 288.15 K [kg/m3] | mass density, 293.15 K [kg/m3] | speed of sound, 288.15 K [m/s] | speed of sound, 293.15 K [m/s] | speed of sound, 303.15 K [m/s] | viscosity, 253.15 K [mPa·s] | viscosity, 293.15 K [mPa·s] | viscosity, 303.15 K [mPa·s]
x2 = 0.1 | 784.1 | 758.47 | 754.83 | 1238.9 | 1219 | 1180 | 3 | 1.31 | 1.12
x2 = 0.2065 | 795 | 769.17 | 765.51 | 1255.2 | 1235.7 | 1197.2 | 3.03 | 1.31 | 1.13
x2 = 0.3009 | 804.9 | 778.97 | 775.3 | 1270.3 | 1250.6 | 1211.8 | 3.08 | 1.31 | 1.14
x2 = 0.3968 | 815.2 | 789.42 | 785.5 | 1286.2 | 1266 | 1227.4 | 3.19 | 1.35 | 1.15
x2 = 0.5001 | 826.8 | 800.56 | 796.87 | – | – | – | – | – | –
x2 = 0.5004 | – | – | – | 1302.9 | 1283.3 | 1244.8 | 3.31 | 1.36 | 1.17
x2 = 0.6 | 838.5 | 812.08 | 808.37 | 1320.1 | 1300.6 | 1262.2 | 3.47 | 1.4 | 1.2
x2 = 0.6998 | 850.5 | 824 | 820.27 | 1338 | 1318.6 | 1280.3 | 3.7 | 1.46 | 1.25
x2 = 0.7997 | 863.5 | 836.31 | 832.57 | 1356.4 | 1337.1 | 1299 | 3.93 | 1.51 | 1.29
x2 = 0.8999 | 875.7 | 849.13 | 845.36 | 1375.5 | 1356.2 | 1318.2 | 4.2 | 1.56 | 1.33

Settings | surface tension liquid-gas [mN/m]
x2 = 0.1 | 21.9
x2 = 0.2065 | 22.5
x2 = 0.3009 | 23.1
x2 = 0.3968 | 23.5
x2 = 0.5001 | 24.1
x2 = 0.6 | 24.7
x2 = 0.6998 | 25.5
x2 = 0.7997 | 26.5
x2 = 0.8999 | 27.7
